The text below walks through data of the supplement of paper PMC10949913.

Holding throughout (conditions): 48 h
In assay [1] the test system is NCI-H295R. Description: AC50 viability; higher = less potent. In a few lines:
(§1)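 In 1,536-well plates, 500–1,000 cells/well of three adrenocortical carcinoma cell lines in 5 µL medium received 23 nL of each library compound across 11 concentrations. At 48 h, CellTiter-Glo was incubated for 15 minutes at room temperature and luminescence measured. Per-plate normalisation used vehicle and empty-well controls, and only inhibitory or non-responding curve classes were kept when fitting concentration-response curves for AC50 and area under the curve.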

Assay [2] deals with CU-ACC1. Description: area under concentration-response curve (viability) (AUC (a.u.)); higher = less active. A digest of the protocol:
as §1

For assay [3], the system named is NCI-H295R. The description is as above. In a few lines: as §1
Assay [4] has as its system CU-ACC2. The description is as above. A digest of the protocol:
as §1

On to `CC(C)(O)CNc1nc(Nc2ccnc(C(F)(F)F)c2)nc(-c2cccc(C(F)(F)F)n2)n1`, for which, in assay [1], the AC50 viability stood at 16.6 µM. Also, the “area under concentration-response curve” value in assay [2] is 402; in assay [3] it was 417.

`CCCCc1oc2ccccc2c1C(=O)c1cc(I)c(OCCN(CC)CC)c(I)c1` displayed an AC50 viability in assay [1] of 23.5 µM. Moreover, the “area under concentration-response curve” value in assay [3] came out at 479.

As for `CCOc1cc2c(c(F)c1OCC)C(=N)N(CC(=O)c1cc(N3CCOCC3)c(OC)c(C(C)(C)C)c1)C2`, the AC50 viability in assay [1] is 20.9 µM. Also, the “area under concentration-response curve” value in assay [3] is 492.

Turning to `CSc1ccc(C(=O)/C=C/c2cc(C)c(OC(C)(C)C(=O)O)c(C)c2)cc1`, the AC50 viability in assay [1] was found to be 48.1 µM. Besides, the “area under concentration-response curve” value is 540 in assay [2] and 571 in assay [3].

Regarding `COc1c(C)c2c(c(O)c1C/C=C(\C)CCC(=O)OCCN1CCOCC1)C(=O)OC2`, the AC50 viability in assay [1] worked out at 0.468 µM. Further, the “area under concentration-response curve” value in assay [3] is 429.

As for `COc1cc(Nc2ncc(F)c(Nc3ccc4c(n3)N(COP(=O)(O)O)C(=O)C(C)(C)O4)n2)cc(OC)c1OC`, in assay [1], the AC50 viability turned out to be 14.8 µM. The “area under concentration-response curve” value in assay [3] turned out to be 512.

With `NCC(=O)Nc1ccc(-n2nc(C(F)(F)F)cc2-c2ccc3c(ccc4ccccc43)c2)cc1`, the AC50 viability in assay [1] is 23.5 µM. For the same compound, in assay [3], the “area under concentration-response curve” value is 551.

Turning to `CC(C)[C@](O)(c1ccc2cc(OC(F)F)c(OC(F)F)cc2c1)c1c[nH]nn1`, the AC50 viability in assay [1] was determined as 23.5 µM. In addition, the figures for the “area under concentration-response curve” value in assay [2] and in assay [3] were 492 and 532, respectively.

Consider `C[C@@H]1C[C@H]2[C@@H]3CC\C4=C\C(=O)\C=C/[C@]4(C)[C@@]3(Cl)[C@@H](O)C[C@]2(C)[C@@]1(OC(=O)C5=CC=CO5)C(=O)CCl`, for which, in assay [1], the AC50 viability worked out at 37.2 µM. Further, the “area under concentration-response curve” value in assay [3] was found to be 580.

For the compound `CN(C)CC[C@H](CSc1ccccc1)Nc1ccc([S+](=O)([O-])NC(=O)c2ccc(N3CCN(Cc4ccccc4-c4ccc(Cl)cc4)CC3)cc2)cc1[N+](=O)[O-]`, in assay [1], the AC50 viability was 18.6 µM. The “area under concentration-response curve” value in assay [3] is 535.

In assay [1], `COC(=O)Nc1nc2cc([S+]([O-])c3ccccc3)ccc2[nH]1` (stereo unspecified) had an AC50 viability of 11.8 µM. The “area under concentration-response curve” value in assay [3] was 522.

As to `O=C(c1ccc(OCCN2CCCCC2)cc1)c1c(-c2ccc(O)cc2)sc2cc(O)ccc12`, in assay [1], the AC50 viability came to 23.5 µM. Further, the “area under concentration-response curve” value in assay [3] came out at 557.

On to `CCN(CC)CCCCNc1ncc2cc(-c3cc(OC)cc(OC)c3)c(NC(=O)NC(C)(C)C)nc2n1`, for which the AC50 viability in assay [1] worked out at 23.5 µM. In addition, in assay [3], the “area under concentration-response curve” value was 476.

In turn, `CC1(C)C(=O)N(c2ccc(C#N)c(C(F)(F)F)c2)C(=S)N1Cc1ccc(-c2c[nH]nn2)cc1` came in with an AC50 viability in assay [1] of 20.9 µM. Further, the “area under concentration-response curve” value in assay [2] came to 472; in assay [3] it was 483.

`Cc1ncc(NC(=O)c2ccc(CN3CCN(C)CC3)c(C(F)(F)F)c2)cc1Nc1nccc(-c2cccnc2)n1` came in with an AC50 viability in assay [1] of 23.5 µM. For the same compound, the “area under concentration-response curve” value in assay [3] is 493.

For the compound `CC(=O)N1CCN(c2ccc(OC[C@H]3CO[C@](Cn4ccnc4)(c4ccc(Cl)cc4Cl)O3)cc2)CC1`, the AC50 viability in assay [1] was found to be 20.9 µM. The “area under concentration-response curve” value in assay [3] stood at 342.

Regarding `CC[C@]12\C=C/CN3CC[C@]4([C@@H](N(C)C5=CC(=C(C=C45)[C@]6(C[C@H]7C[C@H](CN(C7)CC8=C6[NH]C9=C8C=CC=C9)C(C)(F)F)C(=O)OC)OC)[C@](O)([C@@H]1OC(C)=O)C(=O)OC)[C@H]23`, the AC50 viability in assay [1] was found to be 0.698 µM. The entries for the “area under concentration-response curve” value in assay [2] and in assay [3] were 538 and 527, respectively.

On to `C[C@@H]1CCNC(=O)c2cc3ccc(C(=O)Nc4nc5ccccc5n4CCCN(C)C)cc3n21`, for which, in assay [1], the AC50 viability worked out at 18.6 µM. In addition, the “area under concentration-response curve” value in assay [2] is 513; in assay [3] it was 553.

In the case of `CCN(C)[S+](=O)([O-])Nc1ccc(F)c(C(=O)c2c[nH]c3ncc(-c4cnc(C5CC5)nc4)cc23)c1F`, the AC50 viability in assay [1] was found to be 18.6 µM. Besides, the “area under concentration-response curve” value in assay [3] stood at 502.

Take `Cc1ccc(Nc2nnc(Cc3ccncc3)c3ccccc23)cc1Br`: in assay [1], the AC50 viability was 18.6 µM. In addition, in assay [3], the “area under concentration-response curve” value turned out to be 438.

On to `O=C(Nc1nc2cccc(-c3ccc(CN4CC[S+](=O)([O-])CC4)cc3)n2n1)C1CC1`, for which, in assay [1], the AC50 viability was 18.6 µM. In addition, the “area under concentration-response curve” value in assay [3] was determined as 535.

Consider `Cc1ccc(-c2nn(C(C)(C)CNC(=O)c3ccncc3)c3ncnc(N)c23)cc1`, for which the AC50 viability in assay [1] stood at 16.6 µM. Also, the “area under concentration-response curve” value was 515 in assay [2] and 512 in assay [3].

In assay [1], `COc1cc(Oc2ccnc3cc(OC)c(OC)cc23)ccc1NC(=O)NC(C)c1nccs1` (stereo unspecified) gave an AC50 viability of 14.8 µM. Further, the “area under concentration-response curve” value in assay [3] came to 540.

For `COc1ccc(C(=O)c2c(C)n(CCN3CCOCC3)c3cc(I)ccc23)cc1`, in assay [1], the AC50 viability worked out at 8.33 µM. Moreover, the results for the “area under concentration-response curve” value in assay [2] and in assay [3] were 317 and 392, respectively.

In turn, `Cc1ccc(Sc2ccccc2N2CCNCC2)c(C)c1` had an AC50 viability in assay [1] of 20.9 µM. In addition, the “area under concentration-response curve” value in assay [3] was found to be 455.

In turn, `Clc1ccc(CCC(Cn2ccnc2)Sc2c(Cl)cccc2Cl)cc1` (stereo unspecified) registered an AC50 viability in assay [1] of 33.2 µM. Further, the “area under concentration-response curve” value in assay [3] came out at 491.

For `CCN(CC)C(=O)C1=CC=C(C=C1)C/2=C/C3(CCNCC3)OC4=CC=CC(=C24)O`, the AC50 viability in assay [1] came out at 20.9 µM. Further, in assay [3], the “area under concentration-response curve” value was 404.

In assay [1], `Cc1ccc([C@@H]2O[C@H](CO)[C@@H](O)[C@H](O)[C@H]2O)cc1Cc1ccc(-c2ccc(F)cc2)s1` yielded an AC50 viability of 23.5 µM. The “area under concentration-response curve” value in assay [3] was found to be 521.

In turn, `CN(C)CCNC(=O)NC[C@H]1CC[C@@H]2[C@H](O1)c1cc(C(F)(F)F)ccc1N[C@H]2c1ccccc1` registered an AC50 viability in assay [1] of 5.9 µM. Also, the “area under concentration-response curve” value in assay [3] was found to be 437.

`CCOC(=O)[C@@H](N)Cc1ccc(-c2cc(O[C@H](c3ccc(Cl)cc3-n3ccc(C)n3)C(F)(F)F)nc(N)n2)cc1`: in assay [1], the AC50 viability turned out to be 20.9 µM. The “area under concentration-response curve” value in assay [3] turned out to be 506.

In the case of `CN(C)CC(=O)N1CCC(CC1)C2=CC=C(NC(=O)C3=NC(=C[NH]3)C#N)C(=C2)\C4=C\CCCC4`, the AC50 viability in assay [1] came out at 23.5 µM. In addition, in assay [3], the “area under concentration-response curve” value came to 553.

As to `CCn1nc(C2CCN(C(=O)CCO)CC2)nc1-c1cnc(N)c(-c2nnc(C(C)(C)C)o2)n1`, the “area under concentration-response curve” value came out at 387 in assay [2], 504 in assay [4] and 507 in assay [3].

Consider `Cc1ccc(NC(=O)c2cccc(N(C)C)c2)cc1NC(=O)c1ccc(O)cc1`, for which the “area under concentration-response curve” value in assay [2] was 496; in assay [4] it was 556; in assay [3] it was 511.

Consider `Nc1ccc([S+](N)(=O)[O-])cc1`, for which the “area under concentration-response curve” value in assay [2] stood at 417; in assay [4], 415; in assay [3] it was 409.

As to `NC(=O)c1ncn([C@@H]2O[C@H](CO)[C@@H](O)[C@H]2O)n1`, the “area under concentration-response curve” value in assay [2] stood at 511; in assay [4], 504; in assay [3], 530.

Take `COc1ccc(CC2SC(=O)NC2=O)cc1C(=O)NCc1ccc(C(F)(F)F)cc1` (stereo unspecified): the “area under concentration-response curve” value in assay [2] stood at 570; in assay [4], 645; in assay [3], 585.

Consider `CCN1\C=C(\C(O)=O)C(=O)C2=C1C=C(N3CCNCC3)C(=C2)F`, for which the “area under concentration-response curve” value in assay [2] worked out at 356; in assay [4], 397; in assay [3] it was 393.

In the case of `O=C(O)CCCCN(CCc1ccccc1OCc1ccc(CCc2ccccc2)cc1)Cc1ccc(C(=O)O)cc1`, the “area under concentration-response curve” value in assay [2] was determined as 471; in assay [4], 561; in assay [3], 495.

For the compound `CC1(C)CCC(C)(C)c2cc(NC(=O)c3ccc(C(=O)O)cc3)ccc21`, the “area under concentration-response curve” value in assay [2] was found to be 468; in assay [4], 495; in assay [3] it was 443.

Regarding `CC(C)C(=O)Nc1ccc([N+](=O)[O-])c(C(F)(F)F)c1`, the “area under concentration-response curve” value was 551 in assay [2], 627 in assay [4] and 570 in assay [3].

For `[2H]c1nc(C)nc([2H])c1-c1cc(NC[C@@H](C)c2cccc3c(C(=O)NC)ccnc23)ncn1`, the entries for the “area under concentration-response curve” value in assay [2], in assay [4] and in assay [3] were 531, 629 and 585, respectively.

As to `COc1cc2ncnc(Nc3cc(Br)c(O)c(Br)c3)c2cc1OC`, the “area under concentration-response curve” value is 523 in assay [2], 650 in assay [4] and 581 in assay [3].

In the case of `CC(=O)SCC(Cc1ccccc1)C(=O)NCC(=O)OCc1ccccc1` (stereo unspecified), the “area under concentration-response curve” value worked out at 556 in assay [2], 582 in assay [4] and 573 in assay [3].
